# Experimental data: US9895443B2, “Multi-tailed lipids and uses thereof” (Massachusetts Institute of Technology, priority 2013, dated 2018)
# Entries after “also recorded” stand apart in the source; their conditions may differ.
# Key:
# [1] = tested on: Human red blood cells (RBCs); experiment: Hemolysis assay; assay type: cell-based; details: endosomal pH 5.5, 37 C, one hour
# Method: Human red blood cells (RBCs, Innovative Research) were washed twice with 1×PBS and diluted in either 1×PBS or citrate buffer saline at pH 5.5 (CBS, 20 mM citrate buffer, 130 mM NaCl) to a 4% v/v RBC solution. In a v-bottom, 96-well plate, 100 μL of blank LNPs formulated at an equivalent concentration of 23.75 ng siRNA/μL (no siRNA was used) were added to 100 μL of the 4% v/v RBC solution in either PBS or CBS and heated to 37° C. for one hour. After cooling, the plate was centrifuged at 4° C. at 1000×g for 5 minutes. 100 μL of the supernatant was transferred into a clear 96-well assay plate and the UV absorption was read 540 nm. Positive and negative control experiments were carried out with 0.1% Triton-X (100%) and buffer alone, respectively.
# HeLa cells [2] = experiment: Confocal microscopy of LNPs with FRET-labeled siRNA probes; assay type: cell-based; details: 50 ng FRET-labeled probes, one hour
# Method: HeLa cells were seeded at 1.5×10^4 cells per well in black (clear bottom) 96-well plates (Greiner Bio-one) and incubated for 24 hours prior to transfection. The cells were then transfected with the inventive LNPs containing 50 ng of FRET-labeled probes for one hour. The cells were washed, fixed, and counterstained in PBS containing Hoechst (2 μg/mL) for nuclei identification. The cells were then imaged using an automated spinning disk confocal microscope (OPERA, Perkin Elmer) with a 40× objective. The exposure rates were maintained constant for individual fluorophores across the 96-well plate. The images were acquired from the Acapella software with a 20 μm scale bar.
# HeLa cells [3] = experiment: Intracellular FRET with FRET-labeled siRNA probes (flow cytometry); assay type: cell-based; details: early time point after transfection
# Method: (§1) Extracellular/Intracellular Fluorescence Resonance Energy Transfer (FRET) Assays and Cellular Uptake
# (§2) LNPs containing an equimolar mixture of siRNAs labeled with Alexa Fluor® 594 and Alexa Fluor® 647 were diluted to 10 ng siRNA/μL with 1×PBS and added to a black 96-well plate pre-plated with 20,000 HeLa cells at 37° C. Control wells contained LNPs with 1% Triton-X. To measure the FRET, the samples were excited at 540 nm, and the fluorescence intensity was read at 690 and 620 nm using a Tecan Safire 2 Microplate reader at 37° C. FRET was determined as the ratio of the fluorescence intensities at 690/620 nm. FRET signals for all LNPs were normalized to that of the control wells. For extracellular FRET experiments, an identical experiment was carried out without cells, and the FRET data obtained were similar. […] The trypsined cells were then neutralized with 120 μL of quenching media (25% cell culture media in 1×PBS) and transferred to a 96-well v-bottom plate and analyzed via flow cytometry. For each sample, 10,000 events were monitored and evaluated by a BD LSR II HTS flow cytometer (BD Bioscience). […] For cell uptake studies, LNPs formulated with just Alexa Fluor® 647 were analyzed using settings for the Alexa Fluor® 647 channel: exciation via a 633 nm (red, HeNe) laser and emission via a 660/20 nm filter.
# [4] = 6-p-toluidinyl-naphthalene-2-sulfonate (TNS) assay, apparent pKa of the LNPs; assay type: physicochemical; details: TNS fluorescence titration pH 2.5 to 8.5, fully formulated LNP
# Method: 6-p-toluidinyl-naphthalene-2-sulfonate (TNS) Assay
# A series of buffers with pH ranging between 2.5 and 8.5 were prepared by adjusting the pH of a solution containing 10 mM citrate, 10 mM phosphate, 10 mM borate, and 150 mM NaCl with 1N HCl. 90 μL of each buffer solution was added to a 96-well plate. A 300 μM stock solution of TNS was prepared in DMSO and 2 μL of this solution was added to the buffer solutions in the 96 well plate. After formulation, 10 μL of an LNP solution (prepared without siRNA) was added to the above mixture such that the synthesized lipid concentration (not co-lipids) in the final mixture was […]. The fluorescence of the resulting solution was obtained on a Tecan Safire 2 Microplate reader using an excitation wavelength of 325 nm and an emission wavelength of 435 nm. The fluorescence signal was plotted against pH and fitted using a three-parameter logistic equation (GraphPad Prism v.5.0a, GraphPad Software, San Diego Calif. USA). The pH value at which half of the maximum fluorescence is reached was reported as the apparent pKa of the LNPs.
# HeLa cells [5] = experiment: Cellular uptake of LNPs with Alexa Fluor 647 siRNA (flow cytometry); assay type: cell-based; details: two hours incubation, serum containing media
# Method: as §1, §2
# [6] = tested on: HeLa cells stably modified to constitutively express both firefly and Renilla luciferases; experiment: In vitro transfection: firefly luciferase silencing by LNP-siRNA (Dual-Glo); assay type: cell-based; details: LNPs with anti-firefly luciferase siRNA, serum containing media, 24 hours
# Method: Lipid nanoparticles were formulated by mixing an equal volume of an ethanolic solution of a lipid of the invention (e.g., a compound of the invention) and an […] at pH 3 to give a 5:1 synthesized lipid:siRNA ratio. The resulting solution was then diluted in an equal volume of 1× phosphate-buffered saline (PBS). The ethanolic lipid solution contained a mixture of synthesized lipids, cholesterol (Sigma Aldrich), 1,2-distearoyl-sn-glycero-3-phosphocholine (DSPC, Avanti Polar Lipids, Alabaster, Ala.) and mPEG2000-DMG (MW 2660, Alnylam Pharmaceuticals, Cambridge, Mass.) at a molar ratio of 50:38.5:10:1.5 in 200-proof ethanol. For all studies, the ethanolic lipid and siRNA solutions were hand mixed via pipette. The LNPs for in vivo use were also dialyzed for 75 minutes against 1×PBS in 3500 MW cut-off (MWCO) cassettes (Pierce/Thermo Scientific, Rockford, Ill.) prior to use.
# In vitro transfection was performed on HeLa cells stably modified to constitutively express both firefly and Renilla luciferases. Cells were maintained at 37° C. in a 5% CO2 atmosphere in high glucose Dulbelco modified Eagles medium without phenol red (Invitrogen, Carlsbad, Calif.) supplemented with 10% fetal bovine serum (FBS, Invitrogen). Prior to transfection, 15,000 cells were seeded in white 96-well plates and allowed to attach overnight. On the day of transfection, the media was replaced with 90 μL of fresh media. LNPs were formulated at a concentration of 10 ng/μL and diluted with 1×PBS to obtain the desired concentration. For example, to achieve a transfection of 25 ng of siRNA per well, the 10 ng/μL stock was diluted 1:4 to give 2.5 ng/μL, and 10 μL of this solution was added to the cells in 90 μL of media. Lipofectamine (RNAiMAX) was used according to the manufacturer's instructions as a positive control. Relative firefly luciferase silencing was assessed approximately 24 hours after LNP addition using a Dual-Glo luciferase assay kit (Promega, Madison, Wis.). The firefly luciferase values were normalized to the Renilla luciferase values in order to correct for potential toxicity and/or off-target effects. All experiments were carried out in sextuplicates.
# [7] = Dynamic light scattering, particle size; assay type: physicochemical
# Method: After formulation, the LNPs-siRNA were diluted with 1×PBS to a final siRNA concentration of 2 μg/mL. The average particle size was measured via dynamic light scattering on a Malvern Zetasizer Nano ZS (Malvern Instruments, Worcestershire, UK). All experiments were carried out in triplicates.
Structure (SMILES),LNP pKa [4],"in vitro gene silencing (firefly luciferase, Luc/Ren) [6]",also measured
CCCCCCCCCCSCC(COC(=O)CCN(CCCN(CC)CC)CCC(=O)OCC(CSCCCCCCCCCC)SCCCCCCCCCC)SCCCCCCCCCC (centres unmarked) [I-2],,,LNP-mediated hemolysis of RBCs at pH 5.5 [1]: hemolytic; intracellular location of LNPs (HeLa cells [2]): located near the cell membrane and inside endocytic vesicles; also recorded: reside in the endocytic vesicles
CCCCCCCCCCSCC(COC(=O)CCN(CCC(=O)OCC(CSCCCCCCCCCC)SCCCCCCCCCC)CCN(C)C)SCCCCCCCCCC (centres unmarked) [I-3],,,LNP-mediated hemolysis of RBCs at pH 5.5 [1]: hemolytic; intracellular location of LNPs (HeLa cells [2]): located near the cell membrane and inside endocytic vesicles; also recorded: reside in the endocytic vesicles
CCCCCCCCCCSCC(COC(=O)CCN(CCC(=O)OCC(CSCCCCCCCCCC)SCCCCCCCCCC)CCc1ccccn1)SCCCCCCCCCC (centres unmarked) [I-13],low LNP pKa values,poor gene silencing,
CCCCCCCCCCSCC(COC(=O)CCN(CCC(=O)OCC(CSCCCCCCCCCC)SCCCCCCCCCC)CCC1CCCC1)SCCCCCCCCCC (centres unmarked) [I-18],,poor gene silencing; also recorded: unable to silence the target gene,particle size / nanoparticle formation [7]: able to form nanoparticles
CCCCCCCCCCSCC(COC(=O)CCN(CCCN1CCCN(C)CC1)CCC(=O)OCC(CSCCCCCCCCCC)SCCCCCCCCCC)SCCCCCCCCCC (centres unmarked) [I-21],low pKa values,poor gene silencing,"in vitro gene silencing (firefly luciferase, Luc/Ren) ([6]; listed as 21): low gene silencing"
CCCCCCCCCCSCC(COC(=O)CCN(CCC(=O)OCC(CSCCCCCCCCCC)SCCCCCCCCCC)CCN1CCS(=O)(=O)CC1)SCCCCCCCCCC (centres unmarked) [I-28],low LNP pKa values,limited gene silencing performance,intracellular FRET signal (uptake of intact LNPs) (HeLa cells [3]): did not give an intracellular FRET signal; cellular uptake (HeLa cells [5]): relatively high uptake
CCCCCCCCCCSCC(COC(=O)CCN(CCC(=O)OCC(CSCCCCCCCCCC)SCCCCCCCCCC)C1CCN(Cc2ccccc2)CC1)SCCCCCCCCCC (centres unmarked) [I-29],low LNP pKa values,poor gene silencing,
CCCCCCCCCCSCC(COC(=O)CCN(CCC(=O)OCC(CSCCCCCCCCCC)SCCCCCCCCCC)C1CCN(Cc2ccccc2)C1)SCCCCCCCCCC (centres unmarked) [I-30],low LNP pKa values,poor gene silencing,

# The next lines start with results.
LNP pKa [4],Structure (SMILES),"in vitro gene silencing (firefly luciferase, Luc/Ren) [6]",also measured
low pKa values,CCCCCCCCCCSCC(COC(=O)CCN(CCC(=O)OCC(CSCCCCCCCCCC)SCCCCCCCCCC)CCN(C(C)C)C(C)C)SCCCCCCCCCC (centres unmarked) [I-4],poor gene silencing; also recorded: limited gene silencing performance,"intracellular FRET signal (uptake of intact LNPs) (HeLa cells [3]): did not give an intracellular FRET signal; cellular uptake (HeLa cells [5]): relatively high uptake; in vitro gene silencing (firefly luciferase, Luc/Ren) ([6]; listed as 4): low gene silencing"
low pKa values,CCCCCCCCCCSCC(COC(=O)CCN(CCCN(CCCC)CCCC)CCC(=O)OCC(CSCCCCCCCCCC)SCCCCCCCCCC)SCCCCCCCCCC (centres unmarked) [I-6],poor gene silencing,"in vitro gene silencing (firefly luciferase, Luc/Ren) ([6]; listed as 6): low gene silencing"
low LNP pKa values,CCCCCCCCCCSCC(COC(=O)CCN(CCCn1ccnc1)CCC(=O)OCC(CSCCCCCCCCCC)SCCCCCCCCCC)SCCCCCCCCCC (centres unmarked) [I-20],poor gene silencing,
